Test results published in PubChem BioAssay AID330 (DTP/NCI, 2004).
Several values for one entry are separate records, joined by “and”; a condition that tells them apart may be missing. Identical values can stand only once. Toxic doses and inconclusive results are not listed. Rule for the calls: active = survival T/C of 150% or more; inactive = T/C below 125% in these data.

Tested on: P388 leukemia ip, CD2F1 mice, survival T/C
Experiment: NCI In Vivo Anticancer Drug Screen. Data for tumor model P388 Leukemia (intraperitoneal) in CD2F1 (CDF1) mice
Conditions: endpoint: median survival time, higher = longer survival
Procedure, shortened: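 Mice carrying the transplanted tumor received test compound or vehicle. Survival was recorded in each group, and the value is the treated-group measurement divided by that of the vehicle-treated control group.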

[1] = dose: 50.0 mg/kg/injection, schedule: Q01DX005 (ip), vehicle: Klucel (hydroxypropylcellulose) (HPC)
[2] = dose: 100.0 mg/kg/injection, schedule: Q01DX005 (ip), vehicle: Klucel (hydroxypropylcellulose) (HPC)
[3] = dose: 50.0 mg/kg/injection, schedule: Q01DX009 (ip), vehicle: saline
[4] = dose: 100.0 mg/kg/injection, schedule: Q01DX009 (ip), vehicle: saline
[5] = dose: 200.0 mg/kg/injection, schedule: Q01DX009 (ip), vehicle: saline

Measured: T/C

CCOC(=O)c1ccc(N2C(C(=O)OCC)Nc3ccc(C(=O)OCC)cc3C2C(=O)OCC)cc1 (centres undefined)
inactive: dose: 100.0 mg/kg/injection, schedule: Q04DX002 (ip), vehicle: Klucel (hydroxypropylcellulose) (HPC) 97 % of control | dose: 200.0 mg/kg/injection, schedule: Q04DX002 (ip), vehicle: Klucel (hydroxypropylcellulose) (HPC) 88 % of control

CCC[CH2][Sn]([CH2]CCC)([CH2]CCC)[S]C(=S)NCCNC(=S)[S][Sn]([CH2]CCC)([CH2]CCC)[CH2]CCC
inactive: dose: 6.25 mg/kg/injection, schedule: Q01DX010 (ip), vehicle: saline 120 % of control

COc1ccc2ccccc2c1C(=O)CCCc1ccccc1
inactive: dose: 25.0 mg/kg/injection, schedule: Q01DX009 (ip), vehicle: other 98 % of control | dose: 50.0 mg/kg/injection, schedule: Q01DX009 (ip), vehicle: other 98 % of control | dose: 100.0 mg/kg/injection, schedule: Q01DX009 (ip), vehicle: other 98 % of control | dose: 200.0 mg/kg/injection, schedule: Q01DX009 (ip), vehicle: other 92 % of control | dose: 400.0 mg/kg/injection, schedule: Q01DX009 (ip), vehicle: other 105 % of control

C=C(CCCC(C)(C)OCOCCOC)[Si](C)(C)C
inactive: dose: 50.0 mg/kg/injection, schedule: Q01DX005 (ip), vehicle: saline with Tween-80 101 % of control | dose: 100.0 mg/kg/injection, schedule: Q01DX005 (ip), vehicle: saline with Tween-80 100 % of control | dose: 200.0 mg/kg/injection, schedule: Q01DX005 (ip), vehicle: saline with Tween-80 102 % of control

COc1cccc2c1C(=O)c1c(OC)c(C)cc(OC)c1C2=O
inactive: dose: 1.56 mg/kg/injection, schedule: Q01DX009 (ip), vehicle: water 100 % of control | dose: 3.13 mg/kg/injection, schedule: Q01DX009 (ip), vehicle: water 107 % of control | dose: 6.25 mg/kg/injection, schedule: Q01DX009 (ip), vehicle: water 110 % of control | dose: 12.5 mg/kg/injection, schedule: Q01DX009 (ip), vehicle: water 110 % of control | dose: 25.0 mg/kg/injection, schedule: Q01DX009 (ip), vehicle: water 110 % of control

Cc1ccc(S(=O)(=O)/N=C2\CCN(S(=O)(=O)c3ccccc3)N2S(=O)(=O)c2ccc(C)cc2)cc1
inactive: [1] 99 % of control | [2] 90 % of control | dose: 200.0 mg/kg/injection, schedule: Q01DX005 (ip), vehicle: Klucel (hydroxypropylcellulose) (HPC) 94 % of control

C[N+]1(CC(=O)O)C2CCC1CC(O)C2 (centres undefined)
inactive: dose: 25.0 mg/kg/injection, schedule: Q01DX009 (ip), vehicle: saline 108 % of control | [3] 98 % of control and 100 % of control | [4] 101 % of control | [5] 101 % of control and 96 % of control

CCCCCCCCCCCCCCCCCC(N)=S
inactive: dose: 12.5 mg/kg/injection, schedule: Q01DX005 (ip), vehicle: Klucel + Tween-80 95 % of control | dose: 25.0 mg/kg/injection, schedule: Q01DX005 (ip), vehicle: Klucel + Tween-80 95 % of control | dose: 50.0 mg/kg/injection, schedule: Q01DX005 (ip), vehicle: Klucel + Tween-80 86 % of control and 94 % of control | dose: 200.0 mg/kg/injection, schedule: Q01DX005 (ip), vehicle: Klucel + Tween-80 87 % of control

CC(C)n1cc(C(C)(C)C)nc1SSc1nc(C(C)(C)C)cn1C(C)C
inactive: [1] 100 % of control | [2] 96 % of control

Cc1ccc(C)c(N2C(=O)CC3(CCCC3)C2=O)c1
inactive: dose: 100.0 mg/kg/injection, schedule: Q04DX003 (ip), vehicle: Klucel (hydroxypropylcellulose) (HPC) 101 % of control | dose: 200.0 mg/kg/injection, schedule: Q04DX003 (ip), vehicle: Klucel (hydroxypropylcellulose) (HPC) 101 % of control | dose: 400.0 mg/kg/injection, schedule: Q04DX003 (ip), vehicle: Klucel (hydroxypropylcellulose) (HPC) 99 % of control

Fc1cccc(CSC(=S)Nc2ccc(F)c(F)c2)c1
inactive: [3] 116 % of control | [4] 105 % of control | [5] 115 % of control

Cc1ccc(S(=O)CF)cc1 (centres undefined)
inactive: dose: 100.0 mg/kg/injection, schedule: Q04DX003 (ip), vehicle: saline with Tween-80 107 % of control

NS(=O)(=O)c1cc([N+](=O)[O-])sc1SSc1sc([N+](=O)[O-])cc1S(N)(=O)=O
inactive: dose: 6.25 mg/kg/injection, schedule: Q01DX001 (ip), vehicle: saline with Tween-80 99 % of control | dose: 12.5 mg/kg/injection, schedule: Q01DX001 (ip), vehicle: saline with Tween-80 104 % of control | dose: 25.0 mg/kg/injection, schedule: Q01DX001 (ip), vehicle: saline with Tween-80 100 % of control
